# Data as given in patent publication US20210121419A1, “METFORMIN COMPOUNDED COMPOSITION AND METHOD THEREOF” (ZHOUSHAN TRITECH BIOSCIENCES, INC., priority 2018, published 2021).
# System: enteric microorganism
# Assay: Low dose metformin usage in a large population
# Format: in vivo, human
# Conditions: low dose 0.125-0.25 g/day
# Description: One of the new discoveries of the present disclosure is the important health effect of low dose metformin. The normal dosage of metformin in Chinese population is 1-2 g per day, and the dose for the anti-aging clinical trial in the US is 1.7 g per day. It is known that one of the functions of metformin in regulating human health is through regulating enteric microorganism, whereas an unexpected discovery of the present disclosure is that low dose metformin (0.1-0.5 g/day, prefer for 0.125-0.25 g/day) can also promote health through regulating enteric microorganism. The application of low dose metformin can avoid long-term application caused side effects such as hypoglycemia, lactic acidosis, and hepatic and renal toxicity when normal dosage is used.
compound,measurement,setting,value
"CN(C)C(=N)N=C(N)N [metformin, 1,1-Dimethylbiguanide]",time until stool returned to normal,,4 to 5 days
same,stool effect,2-3 days after usage,mild diarrhea
